Laboratory results: US4308210A, “Nanaomycin B and therapeutic compositions containing same” (The Kitasato Institute, priority 1976, dated 1981)
Converted amounts (≈) assume the structure as drawn. “Also recorded” adds a separate entry of the source. Where two headings read alike, the source gives them in different places.

What was measured:
[1] = test system: Bacillus subtillis PCI 219; assay: Antimicrobial spectrum, MIC, nutrient agar; assay type: cell-based; settings: PCI219, 48 h, nutrient agar (pH 7.0, 2 days, 37° C.)
[2] = test system: Staphylococcus aureus FDA 209P (JC-1); assay: Antimicrobial spectrum, MIC, nutrient agar; assay type: cell-based; settings: FDA209P, 48 h, nutrient agar (pH 7.0, 2 days, 37° C.)
Sarcina lutea PCI 1001 = assay: Antimicrobial spectrum, MIC, nutrient agar; assay type: cell-based; settings: Micrococcus luteus, PCI1001, 48 h; nutrient agar (pH 7.0, 2 days, 37° C.)
Escherichia coli NIHJ = assay: Antimicrobial spectrum, MIC, nutrient agar; assay type: cell-based; settings: 48 h, nutrient agar (pH 7.0, 2 days, 37° C.)
Description: (§1) Medium N nutrient agar (pH 7.0, 2 days, 37° C.)
(§2) MIC Minimal inhibitory concentration

[3] = test system: Klebsiella pneumoniae PCI 602; assay: Antimicrobial spectrum, MIC, nutrient agar; assay type: cell-based; settings: PCI602, 48 h, nutrient agar (pH 7.0, 2 days, 37° C.)
Description: as §1, §2

Mycobacterium smegmatis = assay: Antimicrobial spectrum, MIC, nutrient agar; assay type: cell-based; settings: Mycolicibacterium smegmatis, 48 h; nutrient agar (pH 7.0, 2 days, 37° C.)
Description: as §1, §2

Salmonella typhimurium = assay: Antimicrobial spectrum, MIC, nutrient agar; assay type: cell-based; settings: Salmonella enterica, 48 h, nutrient agar (pH 7.0, 2 days, 37° C.)
Description: as §1, §2

Shigella flexneri = assay: Antimicrobial spectrum, MIC, nutrient agar; assay type: cell-based; settings: 48 h, nutrient agar (pH 7.0, 2 days, 37° C.)
Description: as §1, §2

[4] = test system: Escherichia coli NIHJ (JC-2); assay: Antimicrobial spectrum, MIC, nutrient agar; assay type: cell-based; settings: 48 h, nutrient agar (pH 7.0, 2 days, 37° C.)
[5] = test system: Xanthomonas oryzae N-5824; assay: microbe, parasite or virus in culture; assay type: cell-based; settings: N5824, 48 h, pH 7
[6] = test system: Aspergillus niger ATCC 6275; assay: Antimicrobial spectrum, MIC, potato agar; assay type: cell-based; settings: ATCC6275, 96 h, potato agar (pH 6.4, 4 days, 27° C.)
Description: (§3) P potato agar (pH 6.4, 4 days, 27° C.)
as §2

Microsporum gypseum 704 = assay: Antimicrobial spectrum, MIC, potato agar; assay type: cell-based; settings: Nannizzia gypsea, 704, 96 h; potato agar (pH 6.4, 4 days, 27° C.)
Description: as §3, §2

Saccharomyces sake = assay: Antimicrobial spectrum, MIC, potato agar; assay type: cell-based; settings: 96 h, potato agar (pH 6.4, 4 days, 27° C.)
Description: as §3, §2

[7] = test system: Aspergillus fumigatus IAM 2612; assay: Antimicrobial spectrum, MIC, potato agar; assay type: cell-based; settings: IAM2612, 96 h, potato agar (pH 6.4, 4 days, 27° C.)
Trichophyton asteroides = assay: Antimicrobial spectrum, MIC, potato agar; assay type: cell-based; settings: 96 h, potato agar (pH 6.4, 4 days, 27° C.)
Trichophyton ferrugineum = assay: Antimicrobial spectrum, MIC, potato agar; assay type: cell-based; settings: Microsporum ferrugineum, 96 h; potato agar (pH 6.4, 4 days, 27° C.)
Trichophyton roseum = assay: Antimicrobial spectrum, MIC, potato agar; assay type: cell-based; settings: 96 h, potato agar (pH 6.4, 4 days, 27° C.)
Trichophyton rubrum = assay: Antimicrobial spectrum, MIC, potato agar; assay type: cell-based; settings: 96 h, potato agar (pH 6.4, 4 days, 27° C.)
Trichophyton violaceum = assay: Antimicrobial spectrum, MIC, potato agar; assay type: cell-based; settings: 96 h, potato agar (pH 6.4, 4 days, 27° C.)
[8] = test system: Acholeplasma laidlawii (A) PG8; assay: Antimicrobial spectrum, MIC, PPLO agar; assay type: cell-based
Description: (§4) H Hokken PPLO agar (pH 7.8, 8 days, 37° C.)
(§5) E Eiken PPLO agar (pH 7.8, 8 days, 37° C.)
as §2

[9] = test system: Acholeplasma laidlawii (B) Bml; assay: Antimicrobial spectrum, MIC, PPLO agar; assay type: cell-based; settings: 192 h
Description: as §4, §5, §2

[10] = test system: Mycoplasma gallisepticum 333P (Spiramycin resistant); assay: Antimicrobial spectrum, MIC, PPLO agar; assay type: cell-based; settings: for MIC: Mycoplasmoides gallisepticum, 192 h
Description: as §4, §5, §2

[11] = test system: Mycoplasma gallisepticum KP-13; assay: Antimicrobial spectrum, MIC, PPLO agar; assay type: cell-based; settings: Mycoplasmoides gallisepticum, KP13, 192 h
Description: as §4, §5, §2

[12] = test system: Mycoplasma gallisepticum S-6; assay: Antimicrobial spectrum, MIC, PPLO agar; assay type: cell-based; settings: Mycoplasmoides gallisepticum, S6, 192 h
Description: as §4, §5, §2

mycoplasma [13] = assay: Activity against mycoplasma; assay type: cell-based; settings: in words
Description: as §4, §5, §2

[14] = test system: Tricophyton metagrophytes; assay: Treatment of dermatomycosis at the back of guinea pigs; assay type: in vivo; settings: 0.01-1% solution in propylene glycol-ethanol (3:1, v/v), once daily for 8 days
mycoplasma [15] = assay: Antimycoplasma activity, paper disc method; assay type: cell-based
Description: Inhibitory zone is assayed by paper disc method (Eiken PPLO agar, pH 7.8,

Acute toxicity, LD50 = settings: in vivo, ip; intra-penetrial injection into mouse
Excerpt: Accordingly, it can be said that nanaomycin B represents a new antibiotic which may be used as a medicament for human beings and animals.

Solubility = assay type: physicochemical
[16] = Conversion of nanaomycin B into nanaomycin A depending on pH; assay type: physicochemical
Description: Nanaomycin B (200 mg) is dissolved in 60 ml of 0.1 N sodium hydroxide and the solution is allowed to stand for 10 minutes. After adjusting to pH 2.0 with 6 N hydrochloric acid, the product is extracted with ethyl acetate. The extract is evaporated and orange yellow needles are obtained from an ethanol solution of the product. The compound is identified as nanaomycin A by the melting point, IR spectrum and thin-layer chromatography.

[17] = Activity of nanaomycin B itself; settings: in words
[18] = Conversion of nanaomycin B into nanaomycin A in culture medium or living bodies
[19] = pH 7.8, Eiken PPLO agar (pH 7.8, 8 days, 37° C.)
[20] = pH 7.8, Hokken PPLO agar (pH 7.8, 8 days, 37° C.)

With `CC1OC(CC(=O)O)CC2C(=O)c3cccc(O)c3C(=O)C12O` (stereo not drawn) [Nanaomycin B] the MIC [1] was 7.8 µg/mL (≈ 24.4 µM), the MIC [2] was 2 µg/mL (≈ 6.24 µM) and the MIC (Sarcina lutea PCI 1001) was 2 µg/mL (≈ 6.24 µM). The MIC (Escherichia coli NIHJ) was 15.6 µg/mL (≈ 48.7 µM), the MIC [3] was 31.3 µg/mL (≈ 97.7 µM) and the MIC (Mycobacterium smegmatis) was 125 µg/mL (≈ 390 µM). For the same compound, the MIC (Salmonella typhimurium) was 62.5 µg/mL (≈ 195 µM), the MIC (Shigella flexneri) was 62.5 µg/mL (≈ 195 µM) and the MIC [4] was 500 µg/mL (≈ 1560 µM). It also gave an MIC [5] of 125 µg/mL (≈ 390 µM), an MIC [6] of 62.5 µg/mL (≈ 195 µM) and an MIC (Microsporum gypseum 704) of 12.5 µg/mL (≈ 39 µM). The MIC (Saccharomyces sake) was 62.5 µg/mL (≈ 195 µM), the MIC [7] was over 100 µg/mL and the MIC (Trichophyton asteroides) was 12.5 µg/mL (≈ 39 µM). It also gave an MIC (Trichophyton ferrugineum) of 12.5 µg/mL (≈ 39 µM), an MIC (Trichophyton roseum) of 12.5 µg/mL (≈ 39 µM) and an MIC (Trichophyton rubrum) of 3.1 µg/mL (≈ 9.68 µM). The MIC (Trichophyton violaceum) was 3.1 µg/mL (≈ 9.68 µM), the MIC ([8]; Acholeplasma laidlawii, 192 h, Hokken PPLO agar (pH 7.8, 8 days, 37° C.), read-out: MIC) was over 25 µg/mL and the MIC ([8]; Eiken PPLO agar (pH 7.8, 8 days, 37° C.)) was over 25 µg/mL. It also gave an MIC [9, 19] of over 25 µg/mL, an MIC [9, 20] of 25 µg/mL (≈ 78.1 µM) and an MIC [10, 19] of 0.05 µg/mL (≈ 0.156 µM). The MIC [10, 20] was 0.013 µg/mL (≈ 0.0406 µM), the “antimicrobial activity on spiramycin-resistant Mycoplasma gallisepticum” value ([10]; in words) was “high antimicrobial activity” and the MIC [11, 20] was under 0.013 µg/mL. For the same compound, the MIC ([11]; Eiken PPLO agar (pH 7.8, 8 days, 37° C.), read-out: MIC) was 0.1 µg/mL (≈ 0.312 µM), the MIC [12, 19] was 0.1 µg/mL (≈ 0.312 µM) and the MIC [12, 20] was under 0.013 µg/mL. The activity against mycoplasma (mycoplasma [13]) was “high activity; also recorded: especially strong activity”, the “therapeutic effect on erythema and scales” value [14] was “excellent therapeutic effect” and the zone of inhibition at 10 µg/mL (mycoplasma [15]; Mycoplasma, 24 h, 10 μg/ml, Eiken PPLO agar, pH 7.8, 37° C., 1 day, read-out: Inhibitory Zone) was 22.7 mm. For the same compound, the zone of inhibition at 100 µg/mL (mycoplasma [15]; Mycoplasma, 24 h, 100 μg/ml, Eiken PPLO agar, pH 7.8, 37° C., 1 day, read-out: Inhibitory Zone) was 32.6 mm, the “antimycoplasma activity compared with ethylkalafunginate and deoxyfrenolicin” value (mycoplasma [15]; in words) was “superior” and the LD50 (Acute toxicity, LD50) was 169 mg/kg. The “Solubility in methanol, ethanol, ethylacetate, chloroform, acetone and ether” value (Solubility) was “Easily soluble”, the “Solubility in n-hexane, petroleum ether and water” value (Solubility) was “Insoluble” and the “conversion into nanaomycin A in an acidic or neutral condition” value ([16]; acidic or neutral condition) was “gradually converted”. For the same compound, the “conversion into nanaomycin A in an alkaline condition” value ([16]; alkaline condition) was “easily converted into nanaomycin A”, the “activity of nanaomycin B itself” value [17] was “no or little activity” and the “conversion into nanaomycin A in a culture medium or in living bodies” value [18] was “converted into nanaomycin A”.
